Test: Effective concentration that reduces HIV-induced cytopathic effect by 50% was determined by reverse transcriptase (RT) assay.

Point of comparison: `Cc1cn([C@H]2C[C@H](N=[N+]=[N-])[C@@H](CO)O2)c(=O)[nH]c1=O` [1-((2R,4S,5S)-4-Azido-5-hydroxymethyl-tetrahydro-furan-2-yl)-5-methyl-1H-pyrimidine-2,4-dione], EC50 10 nM. Against it:
- Cc1cn([C@H]2C=C[C@@H](CO)O2)c(=O)[nH]c1=O [2',3'-didehydro-3'-deoxythymidine] — 5-fold higher, 50 nM
- CCCCCCCCCCCCCCCC(=O)OCC1C=CC(n2cc(C)c(=O)[nH]c2=O)O1 (stereo not given) [Hexadecanoic acid 5-(5-methyl-2,4-dioxo-3,4-dihydro-2H-pyrimidin-1-yl)-2,5-dihydro-furan-2-ylmethyl ester] — 8-fold higher, 80 nM
- Cc1cn(C2C=CC(COP(=O)(O)OCC3C=CC(n4cc(C)c(=O)[nH]c4=O)O3)O2)c(=O)[nH]c1=O (stereo not given) [Phosphoric acid bis-[5-(5-methyl-2,4-dioxo-3,4-dihydro-2H-pyrimidin-1-yl)-2,5-dihydro-furan-2-ylmethyl] ester] — 5-fold higher, 50 nM
- CCCCCCCCCCCCCCCCOP(=O)(O)OCC1C=CC(n2cc(C)c(=O)[nH]c2=O)O1 (stereo not given) [Phosphoric acid hexadecyl ester 5-(5-methyl-2,4-dioxo-3,4-dihydro-2H-pyrimidin-1-yl)-2,5-dihydro-furan-2-ylmethyl ester] — 20-fold higher, 200 nM
